Entries after “also recorded” stand apart in the source; their conditions may differ.
Tests used:
P-glycoprotein (P-gp) [1] = target: T1, P-glycoprotein (P-gp) (Homo sapiens, UniProt P08183); assay: Loganin transport across Caco-2 monolayers with P-gp inhibitor verapamil; format: in vitro ADME
T1 construct: endogenous in cells; host or cells: Caco-2 monolayers
Protocol: (§1) Before the experiments, the human intestinal Caco-2 cell monolayers were washed twice with HBSS medium (pH 7.4). The transport experiments were conducted by adding the drug solutions (containing 1% DMSO) to either the apical (AP, 0.5 mL) or basolateral side (BL, 1.0 mL), while the receiving chamber contained the corresponding volume of blank HBSS medium. The monolayers were incubated at 37°C, and 50 μL samples were taken at 15, 30, 45, 60, 90, and 120 min from the acceptor compartment, and the volume was then immediately replaced with50 μL of fresh, prewarmed blank HBSS. TEER measurements for assessing the membrane integrity took place before and after the experiment. The samples were frozen immediately and stored below −80°C before analysis.
(§2) Several efflux and influx transporters were investigated for their effects on the transport flux of loganin. One hundred μM verapamil was added to evaluate the selectivity of P-glycoprotein (P-gp); inhibiting the efflux by multidrug resistance-associated proteins (MRPs) was undertaken by adding 100μM MK571, 50μM benzbromarone, and 200μM indomethacin [21–23]; 25 μM apigenin was used to investigate breast cancer resistance protein (BCRP); 50 μM sodium vanadate and cimetidine were used as Na^+/K^+pump and […] inhibitors.
(§3) UPLC-MS/MS data acquisition was performed using Analyst 1.5.2 and MultiQuant 2.1.1 software (Applied Biosystems). The data were analyzed by SPSS Software. The apparent permeability coefficient (Papp) was calculated according to Papp = (dQ/dt)/(A·C0)
(§4) where dQ/dt is the steady-state flux (nmol/s), A is the surface area of the insert (cm^2); C0 is the initial concentration. The efflux ratio (P) was determined by calculating the ratio of PappBA versus PappAB as in(1) P=PappBA/PappAB Statistical analysis was performed with analysis of variance (ANOVA) after confirmation of normal distributions.

P-glycoprotein (P-gp) [2] = tested on: T2, P-glycoprotein (P-gp); assay: as above; format: in vitro ADME, human; conditions: human, Caco-2, pH 7.4; with verapamil 100 μM, loganin 20 μM, n = 3
T2 construct: endogenous in cells; host or cells: Caco-2 monolayers
Protocol: as §1, §2, §3, §4

OATs = assay: Loganin transport across Caco-2 monolayers with OATs inhibitor cimetidine; format: in vitro ADME, human
Protocol: as §1, §2, §3, §4

MRPs = assay: Loganin transport across Caco-2 monolayers with MRPs inhibitor MK 571; format: in vitro ADME, human; parameters: key to Modulatory effect: +: Indicates that the inhibitor has significant effect on the loganin transport
Protocol: as §1, §2, §3, §4

MRP2, MRP3 = assay: Loganin transport across Caco-2 monolayers with MRP2/MRP3 inhibitor benzbromarone; format: in vitro ADME, human; parameters: key to Modulatory effect: +: Indicates that the inhibitor has significant effect on the loganin transport
Protocol: as §1, §2, §3, §4

Na+/K+ pump = assay: Loganin transport across Caco-2 monolayers with Na+/K+ pump inhibitor sodium vanadate; format: in vitro ADME, human; conditions: human
Protocol: as §1, §2, §3, §4

Na^+/K^+pump = assay: as above; format: in vitro ADME, human; conditions: pretreatment with 50 μM sodium vanadate
Protocol: as §1, §2, §3, §4

[3] = tested on: human intestinal Caco-2 cells; assay: MTT cytotoxicity (cell viability) assay; format: cell-based; conditions: for Survival Rates: n = 5, mean ± SD
Protocol: Cell viability was assessed using an MTT assay. Briefly, 0.1 mL of human intestinal Caco-2 cells was seeded onto 96-well plates at a density of 1×10^5 cells per well in a 96-well plate. The cells were grown in an atmosphere with 5% CO2 and 95% relative humidity over approximately 48 h. Subsequently, the culture medium was replaced with HBSS containing different concentrations of loganin (0.1-200 μM); the final concentration of dimethyl sulfoxide (DMSO) in HBSS remained at <1%. The negative control was HBSS containing 1% DMSO. […] Then, 0.2 mL of 0.5mg/mL MTT solution was added to each well and incubated for 4 h in dark. The medium was then removed, the MTT-formazan crystals were solubilized by incubating with 150 μL of DMSO with gentle shaking for 10 min, and absorbance was determined at 490 nm in a Multiskan Spectrum microplate reader (Thermo Labsystems, MA, USA). In each MTT assay, every sample was tested in five replicates and the viability of the nontreated control cells was arbitrarily defined as 100%.

[4] = human, Caco-2, pH 7.4, with cimetidine 50 μM, loganin 20 μM, n = 3
[5] = human, Caco-2, pH 7.4, with MK571 100 μM, with MK 571 100 μM, loganin 20 μM, n = 3
[6] = with 100 μM MK 571, 20 μM loganin
[7] = human, Caco-2, pH 7.4, with benzbromarone 50 μM, loganin 20 μM, n = 3
[8] = Caco-2, pH 7.4, with sodium vanadate 50 μM, loganin 20 μM, n = 3

T1 sequence (P08183 whole entry): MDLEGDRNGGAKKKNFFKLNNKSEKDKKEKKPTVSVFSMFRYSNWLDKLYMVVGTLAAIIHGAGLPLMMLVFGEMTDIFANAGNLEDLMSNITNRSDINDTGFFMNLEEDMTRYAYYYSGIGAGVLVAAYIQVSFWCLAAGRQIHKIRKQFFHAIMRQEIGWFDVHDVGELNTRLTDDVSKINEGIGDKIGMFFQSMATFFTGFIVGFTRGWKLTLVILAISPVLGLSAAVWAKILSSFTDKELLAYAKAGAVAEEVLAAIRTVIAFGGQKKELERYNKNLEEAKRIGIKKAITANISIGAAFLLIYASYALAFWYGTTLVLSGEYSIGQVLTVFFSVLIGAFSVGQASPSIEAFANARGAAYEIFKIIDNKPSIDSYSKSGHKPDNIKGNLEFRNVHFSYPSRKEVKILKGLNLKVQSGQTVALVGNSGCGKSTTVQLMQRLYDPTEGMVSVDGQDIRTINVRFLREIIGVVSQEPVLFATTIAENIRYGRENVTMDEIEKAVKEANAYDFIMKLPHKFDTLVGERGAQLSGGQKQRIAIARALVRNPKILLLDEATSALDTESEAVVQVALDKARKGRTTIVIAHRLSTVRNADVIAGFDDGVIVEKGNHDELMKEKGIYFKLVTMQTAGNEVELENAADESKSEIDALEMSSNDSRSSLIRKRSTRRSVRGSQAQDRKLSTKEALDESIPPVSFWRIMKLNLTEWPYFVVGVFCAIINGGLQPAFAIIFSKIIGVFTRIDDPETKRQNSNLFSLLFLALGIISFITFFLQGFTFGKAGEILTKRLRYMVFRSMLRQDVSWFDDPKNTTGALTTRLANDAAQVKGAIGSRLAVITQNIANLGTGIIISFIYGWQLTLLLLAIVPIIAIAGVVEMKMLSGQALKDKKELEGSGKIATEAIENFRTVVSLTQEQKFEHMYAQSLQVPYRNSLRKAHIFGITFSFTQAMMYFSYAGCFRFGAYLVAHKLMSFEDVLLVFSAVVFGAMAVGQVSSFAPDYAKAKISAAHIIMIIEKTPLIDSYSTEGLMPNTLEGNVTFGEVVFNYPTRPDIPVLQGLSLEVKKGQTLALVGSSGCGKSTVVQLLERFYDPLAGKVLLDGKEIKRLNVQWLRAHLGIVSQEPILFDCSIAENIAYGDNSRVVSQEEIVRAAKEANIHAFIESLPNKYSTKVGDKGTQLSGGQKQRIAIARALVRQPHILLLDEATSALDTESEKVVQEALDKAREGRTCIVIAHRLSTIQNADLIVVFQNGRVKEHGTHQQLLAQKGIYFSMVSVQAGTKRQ

With `COC(=O)C1=CO[C@@H](O[C@@H]2O[C@H](CO)[C@@H](O)[C@H](O)[C@H]2O)[C@@H]2[C@@H](C)[C@@H](O)C[C@H]12` [loganin, Loganin] the efflux ratio at 120 min, 20 μM (P-glycoprotein (P-gp) [1]; human, Caco-2, pH 7.4, with verapamil 100 μM, read-out: P (efflux ratio PappBA/PappAB)) was 0.84, the “Substrate of P-gp (in words)” value (P-glycoprotein (P-gp) [1]; judged from verapamil vs control) was “not the substrate; also recorded: not a substrate” and the “PappAB difference between verapamil and control groups (in words)” value (P-glycoprotein (P-gp) [1]; verapamil 100 μM) was “insignificant”. The PappAB (P-glycoprotein (P-gp) [1]; with verapamil 100 μM, loganin 20 μM, n = 3) was 11.1±1.7 ×10^−6cm/s, the Papp B→A at 120 min, 20 μM (P-glycoprotein (P-gp) [2]) was 93 ± 17 nm/s and the efflux ratio at 120 min, 20 μM (OATs; human, Caco-2, pH 7.4, with cimetidine 50 μM, read-out: P (efflux ratio PappBA/PappAB)) was 0.9. For the same molecule, the Papp A→B at 120 min, 20 μM (OATs; [4]) was 110 ± 15 nm/s, the Papp B→A at 120 min, 20 μM (OATs; [4]) was 99 ± 20 nm/s and the “Effect on Papp values (in words)” value (OATs; pretreatment with 50 μM cimetidine) was “no significant effects”. For the same molecule, the “Increase of transport from the apical to the basolateral side” value (MRPs; after addition of a MRP inhibitor (not named in the abstract), vs control) was 2.09 fold, the Papp A→B at 120 min, 20 μM (MRPs; [5]) was 272 ± 41 nm/s and the Papp B→A at 120 min, 20 μM (MRPs; [5]) was 39 ± 2 nm/s. For the same molecule, the efflux ratio at 120 min, 20 μM (MRPs; human, Caco-2, pH 7.4, with MK571 100 μM, with MK 571 100 μM, read-out: P (efflux ratio PappBA/PappAB)) was 0.14, the “PappAB relative to control group” value (MRPs; [6]) was about 2 fold and the “Reduction of PappBA vs control” value (MRPs; [6]) was 66.7%. The Modulatory effect (MRPs; with MK 571 100 μM) was “+”, the efflux ratio at 120 min, 20 μM (MRP2, MRP3; human, Caco-2, pH 7.4, with benzbromarone 50 μM, read-out: P (efflux ratio PappBA/PappAB)) was 0.23 and the Papp A→B at 120 min, 20 μM (MRP2, MRP3; [7]) was 295 ± 59 nm/s. For the same molecule, the Papp B→A at 120 min, 20 μM (MRP2, MRP3; [7]) was 67 ± 9 nm/s, the Modulatory effect (MRP2, MRP3; with benzbromarone 50 μM) was “+” and the efflux ratio at 120 min, 20 μM (Na+/K+ pump; Caco-2, pH 7.4, with sodium vanadate 50 μM, read-out: P (efflux ratio PappBA/PappAB)) was 0.73. For the same molecule, the Papp A→B at 120 min, 20 μM (Na+/K+ pump; [8]) was 123 ± 7 nm/s, the Papp B→A at 120 min, 20 μM (Na+/K+ pump; [8]) was 90 ± 11 nm/s and the “Effect on Papp values (in words)” value (Na^+/K^+pump) was “no significant effects”. For the same molecule, the “Survival Rates” value ([3]; loganin 0.1 μM, MTT) was 107.66±10.9%, the “Survival Rates” value ([3]; loganin 1 μM, MTT) was 108.73±25.4% and the “Survival Rates” value ([3]; loganin 5 μM, MTT) was 106.57±8.3%. For the same molecule, the “Survival Rates” value ([3]; loganin 10 μM, MTT) was 106.22±10.9%, the “Survival Rates” value ([3]; loganin 50 μM, MTT) was 103.45±3.3% and the “Survival Rates” value ([3]; loganin 100 μM, MTT) was 101.45±6.5%. The “Inhibition of Caco-2 cells” value ([3]; loganin 200 μM, MTT) was 4.67%, the “Survival Rates” value ([3]; loganin 200 μM, MTT) was 95.33±5.3% and the “Toxicity to Caco-2 cells (in words)” value ([3]; loganin 0.1 to 100 μM, after 4 h exposure (so in the source)) was “nontoxic”.

Reference: publication PMC6323428, “Elucidation of the Intestinal Absorption Mechanism of Loganin in the Human Intestinal Caco-2 Cell Model” (Evidence-based Complementary and Alternative Medicine : eCAM, 2018)
